Experimental data as given in US5525731A, “Camptothecin analogues and methods of preparation thereof” (priority 1994, dated 1996).
“Also recorded” adds a separate entry of the source. Like-named read-outs stand apart in the source and are kept apart here.

How the values were obtained:
[1] = tested on: B-16 melanoma; assay type: in vivo, BD2 F1 mice
Method: Average body weight changes were recorded daily.
Tumor: B16 Melanoma Drug A = Camptothecin
Inoculation: 2 × 10^6 cells. S.C.
(§1) Schedule: QD × 5. I.P. started day 4

[2] = tested on: Sarcoma 180
Method: The control lane (Table A) indicates separate inoculation of nine mice with B-16 melanoma and sarcoma 180.
Anti-tumor activity of the newly synthesized compounds and the established drugs (as positive controls) against solid tumors (B-16 melanoma and sarcoma 180) was tested in BD2 F1 mice. Tumor (about 2.5×10^6 cells) was inoculated subcutaneously (s.c.). Treatment with the drug started on day 4 after inoculation. The drug was injected intraperitoneously (i.p) daily (QD) for five days. Control mice received the same volume (50 μl) of the solvent vehicle (Dinso) as the drug-treated animals. Tumor size was evaluated every few days using a caliper for both the control and the treated group. Average body weight changes were recorded daily. Any lethality due to high dose drug toxicity or due to tumor progression was also recorded.
as §1

[3] = tested on: topoisomerase I and DNA; conditions: camptothecin, literature; cited from earlier work
[4] = tested on: topoisomerase I; conditions: camptothecin, literature; cited from earlier work
[5] = camptothecin, background; cited from earlier work
[6] = tested on: 833K cells; experiment: Cytotoxicity, XTT assay, 833K cell growth, 72 hr exposure; assay type: cell-based; conditions: Homo sapiens, 72 h
Method: (§2) The synthesized compounds were evaluated for their cytotoxic effects on HL-60 (human promyelocytic leukemia) and 833K cells. The assay was conducted in 96-well microplates. The compounds were serially diluted in 4 to 6 steps with dimethylsulfoxide and added to cell incubation medium (RPMI 1640 containing 10% fetal. […]) at the final concentration of 1.0% dimethylsulfoxide in the medium. The cytotoxicity of the compounds were determined by the XTT-microculture tetrazolium assay: 2',3'-bis(2-methoxy-4-nitro-5-sulfophenyl)-3-[(phenylamino)carbonyl]-2H-tetrazolium hydroxide (XTT) was prepared at 1 mg/mL in prewarmed (37° C.) medium without serum. Phenazine methosulfate (PMS) and fresh XTT were mixed together to obtain 0.075 mM PMS-XTT solution (25 mL of the stock with 5 mg PMS added per 5 mL of 1 mg/mL XTT). Fifty microliters of this mixture were added to each well of the cell culture after 72 hours exposure to the testing compound. After incubation at 37° C. for 6 hours, the absorbance was determined at 450 nm and 630 nm with a microplate reader (EL 340, Bio-Tek Instruments, Inc., Winooski, Vt.). THe median-effect inhibitory concentration (IC50) was determined from a medium-effect plot using computer software for the purpose.
(§3) The results of the assay of cytotoxicity towards HL-60 and 833K cells of several analogues of camptothecin prepared in accord with the invention are illustrated in the accompanying Tables I and II, along with comparison data for native camptothecin. The data shown indicate that the camptothecin analogues prepared by the new methods provided by the invention have significant cytotoxic activity against cancer cells. […]

[7] = tested on: HL-60 cells (human promyelocytic leukemia); experiment: Cytotoxicity, XTT assay, HL-60 cell growth, 72 hr exposure; assay type: cell-based; conditions: for IC50: read-out: Inhibitory Concentrations IC50
Method: as §2, §3

[8] = B-16 melanoma, 4 mg/kg i.p. QD × 5, day 7
[9] = Sarcoma 180, 4 mg/kg i.p. QD × 5, day 7
[10] = Table I, HL-60 (head HL-6), 72 hr, XTT

For CC[C@@]1(O)C(=O)OCc2c1cc1n(c2=O)Cc2cc3ccccc3nc2-1 [Camptothecin], the “AVERAGE TUMOR VOLUME” value ([1]; B16 melanoma, 4 mg/kg, day 7) was 0.113 CM^3, the “DEATHS (D/L)” value ([1]; B16 melanoma, 4 mg/kg, day 7) was 0/2 and the “PERCENT OF CONTROL (tumor volume)” value ([1]; B16 melanoma, 4 mg/kg, day 7) was 59.5%. The “AVERAGE TUMOR VOLUME” value ([1]; B16 melanoma, 4 mg/kg, day 14) was 3.500 CM^3, the “AWC (average weight change)” value ([1]; B16 melanoma, 4 mg/kg, day 14) was “+2.4 GM” and the “DEATHS (D/L)” value ([1]; B16 melanoma, 4 mg/kg, day 14) was 0/2. For the same compound, the “PERCENT OF CONTROL (tumor volume)” value ([1]; B16 melanoma, 4 mg/kg, day 14) was 109.8%, the average weight loss ([1]; B-16 melanoma, 4 mg/kg) was 1.8 gm and the tumor volume decrease ([1]; B-16 melanoma, 4 mg/kg) was 40%. The “AWC (average weight change)” value [1, 8] was -1.8 gm, the “Ave Tumor Volume (T/C)” value [1, 8] was 0.595 and the “AWC (average weight change)” value [2, 9] was -0.9 gm. The “Ave Tumor Volume (T/C)” value [2, 9] was 0.634, the “AVERAGE TUMOR VOLUME” value ([2]; Sarcoma 180, 4 mg/kg, day 7) was 0.104 CM^3 and the “DEATHS (D/L)” value ([2]; Sarcoma 180, 4 mg/kg, day 7) was 0/2. For the same compound, the “PERCENT OF CONTROL (tumor volume)” value ([2]; Sarcoma 180, 4 mg/kg, day 7) was 63.4%, the “AVERAGE TUMOR VOLUME” value ([2]; Sarcoma 180, 4 mg/kg, day 14) was 0.080 CM^3 and the “AWC (average weight change)” value ([2]; Sarcoma 180, 4 mg/kg, day 14) was “+0.8 GM”. The “DEATHS (D/L)” value ([2]; Sarcoma 180, 4 mg/kg, day 14) was 0/2, the “PERCENT OF CONTROL (tumor volume)” value ([2]; Sarcoma 180, 4 mg/kg, day 14) was 39.4% and the average weight loss ([2]; sarcoma 180, 4 mg/kg) was 0.9 gm. The tumor volume decrease ([2]; sarcoma 180, 4 mg/kg) was 36%, the “binding to the enzyme or DNA target in isolation” value [3] was “binds neither to the enzyme nor to its DNA target in isolation” and the “inhibition of topoisomerase I on DNA unwinding” value [4] was “inhibits the action of topoisomerase I on DNA unwinding; also recorded: reversible with heat, high salt concentrations and high dilution”. For the same compound, the toxicity [5] was “High toxicity”, the IC50 ([6]; read-out: Inhibitory Concentrations IC50) was 15.3 nM and the IC70 ([6]; read-out: Inhibitory Concentrations IC70) was 43 nM. It also gave an IC95 ([6]; read-out: Inhibitory Concentrations IC95) of 649 nM, an IC70 ([7]; Homo sapiens, HL-60, 72 h, read-out: Inhibitory Concentrations IC70, Table I, HL-60 (head HL-6), 72 hr, XTT) of 12 nM and an IC70 ([7]; Homo sapiens, HL-60, 72 h, read-out: Inhibitory Concentrations IC70, Table II, HL-60, 72 hr, XTT) of 12 nM. For the same compound, the IC95 ([7]; Homo sapiens, HL-60, 72 h, read-out: Inhibitory Concentrations IC95, Table I, HL-60 (head HL-6), 72 hr, XTT) was 25 nM, the IC95 ([7]; Homo sapiens, HL-60, 72 h, read-out: Inhibitory Concentrations IC95, Table II, HL-60, 72 hr, XTT) was 25 nM and the “Inhibitory Concentrations IC70” value [7, 10] was 0.006. For the same compound, the “Inhibitory Concentrations IC95” value [7, 10] was 0.022, the IC70 ([7]; Table II, HL-60, 72 hr, XTT, read-out: Inhibitory Concentrations IC70) was 6 nM and the IC95 ([7]; Table II, HL-60, 72 hr, XTT, read-out: Inhibitory Concentrations IC95) was 22 nM. It also gave an IC50 [7, 10] of 3.5 nM, an IC50 ([7]; Table I, HL-60 (head HL-6), 72 hr, XTT, listed as WS-1) of 9.4 nM and an IC50 ([7]; Table II, HL-60, 72 hr, XTT) of 3.5 nM. It also gave an IC50 ([7]; Table II, HL-60, 72 hr, XTT, listed as WS-1) of 9.4 nM.
